The target of one experiment is T1, CDK6/CyclinD3 (Homo sapiens, UniProt Q00534).
T1 construct: purchased Carna 04-107
Description: Assay for inhibition of CDK6/CyclinD3 (Caliper microfluidic kinase assay). The class given is biochemical. Conditions: CDK6/CyclinD3, 300 μM ATP. As to the method: (§1) The CDK6 enzyme assay for IC50 determination was performed as follows. Microfluidic kinase detection technology (Caliper) was used to monitor the phosphorylation of peptide substrate by CDK6/CyclinD3. The total reaction volume is 15 μL containing buffer A (100 mM HEPES (pH 7.5), 0.1% BSA, 0.01% Triton X-100, 1 mM DTT, 10 mM MgCl2, 10 μM Sodium Orthovanadate, 10 μM Beta-Glycerophosphate), 300 μM ATP, 2 nM CDK6/CyclinD3 (Carna, 04-107), 1 μM FL-34 (5-FAM-[…]), and the test compound at appropriate dilutions in DMSO. All components were added to the 384-well plate (Corning, 4514), and incubated at Room Temperature for 3 hours. The reaction was terminated by addition of 15 μL Stop Buffer (180 mM HEPES (pH 7.5), 20 mM EDTA, Coating-3 reagent (PerkinElmer, 760050)). The plate was then loaded on Caliper EZ Reader (EZ Reader II, PerkinElmer, HD-4HYSG2772), and the reaction mixtures including substrate and product were sipped into the microfluidic chip for separation and detection. The IC50 values of the test compound were determined by fitting the inhibition curves by 4 parameter sigmoidal dose-response model using the Xlfit5/GraphPad Prism 5 software.

The target in the next experiment is T2, CDK4/CyclinD1 (Homo sapiens, UniProt P11802).
T2 construct: purchased Thermofisher PR8064A
T2 sequence (P11802 whole entry): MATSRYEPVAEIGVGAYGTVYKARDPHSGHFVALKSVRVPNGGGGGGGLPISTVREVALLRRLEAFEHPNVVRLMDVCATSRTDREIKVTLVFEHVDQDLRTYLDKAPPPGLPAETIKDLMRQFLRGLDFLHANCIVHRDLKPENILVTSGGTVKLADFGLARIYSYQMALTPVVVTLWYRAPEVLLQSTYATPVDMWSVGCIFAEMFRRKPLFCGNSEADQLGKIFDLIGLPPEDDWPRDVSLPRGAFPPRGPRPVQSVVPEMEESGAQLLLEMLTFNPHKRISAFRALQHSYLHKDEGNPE
T2 sequence (P24385 whole entry partner): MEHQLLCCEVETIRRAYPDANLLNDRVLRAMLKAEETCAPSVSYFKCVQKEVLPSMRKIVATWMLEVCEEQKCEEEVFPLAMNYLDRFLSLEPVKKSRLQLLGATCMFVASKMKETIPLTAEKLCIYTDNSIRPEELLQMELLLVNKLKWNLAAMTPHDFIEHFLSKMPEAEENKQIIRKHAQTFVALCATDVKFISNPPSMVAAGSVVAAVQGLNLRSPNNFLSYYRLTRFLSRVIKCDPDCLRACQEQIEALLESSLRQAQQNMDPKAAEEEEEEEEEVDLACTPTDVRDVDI
Description: Assay for inhibition of CDK4/CyclinD1 (Caliper microfluidic kinase assay). The format is biochemical. Conditions: CDK4/CyclinD1, 200 μM ATP. As to the method:
as §1, with “The CDK4” for “The CDK6”, “by CDK4/CyclinD1.” for “by CDK6/CyclinD3.”, “volume was” for “volume is”, “Beta-Glycerophosphate), 200” for “Beta-Glycerophosphate), 300”, “ATP, 1” for “ATP, 2”, “nM CDK4/CyclinD1 (Thermofisher, PR8064A),” for “nM CDK6/CyclinD3 (Carna, 04-107),”

The next experiment relates to T47D breast cancer cells. The experiment can be described thus: Anti-proliferation assay in T47D cell (Cyquant, day 6). Conditions: Homo sapiens, T47D, anti-proliferation, T47D cells; read-out: T47D IC50. The class given is cell-based, human. From the text:
T47D is a human breast cancer cell line commonly used in biomedical research involving the hormonal expression of cancer cells. T47D cells are distinct from other human breast cancer cells in that their progesterone receptors (PR) are not regulated by estradiol, a hormone that is abundant within the cells themselves. T47D cells have been employed in studies of the effects of progesterone on breast cancer and the corresponding transcriptional regulation caused by introduced drugs. The cells have been noted to be extremely resistant to estrogens and antiestrogens.
T47D breast cancer cells from American Type Culture Collection (ATCC, HTB-133) were plated at 3000 cells/well in 96-well plates, and were incubated in RPMI 1640 medium (Gibco, 31800105) with 10% Fetal Bovine Serum (FBS, Biowest, FB-1058) at 37° C., 5% CO2. After overnight incubation, baseline values were measured of the samples from one plate using Cyquant reagent (Invitrogen, C35011) following manufacturer's recommendations. Cells were incubated with the detection reagent for 1 hour at 37° C., and then the fluorescence was measured with excitation at 485 nm and emission at 535 nm using Spectra Max M5 (Molecular Devices, HD-4HYSG3196). Other plates were dosed with compounds at a ten-point dose concentration from 10 μM to 0.51 nM in a 3-fold dilution scheme. On day 6 after compound addition, Cyquant reagent was added and the fluorescence was measured using Spectra Max M5. The IC50 values of the test compound's anti-proliferation activity were determined from the baseline subtracted viability readout curve using Xlfit5/GraphPad Prism 5 software.

A further experiment deals with T3, CDK2/CyclinE1 (Homo sapiens, UniProt P24941).
T3 construct: purchased SignalChem C29-18G
The experiment can be described thus: Assay for inhibition of CDK2/CyclinE1 (Caliper microfluidic kinase assay). The class given is biochemical. Conditions: CDK2/CyclinE1, 100 μM ATP; read-out: CDK2 IC50. The protocol: The CDK2 enzyme assay for IC50 determination was performed as follows. Microfluidic kinase detection technology (Caliper) was used to monitor the phosphorylation of peptide substrate by CDK2/CyclinE1. The total reaction volume was 15 μL containing buffer A (100 mM HEPES (pH 7.5), 0.1% BSA, 0.01% Triton X-100, 1 mM DTT, 10 mM MgCl2, 10 μM Sodium Orthovanadate, 10 μM Beta-Glycerophosphate), 100 μM ATP, 5 nM CDK2/CyclinE1 (SignalChem, C29-18G), 5 μM FL-18 (5-FAM-QSPKKG-NH2), and the test compound at appropriate dilutions in DMSO. All components were added to the 384-well plate (Corning, 4514), and incubate at Room Temperature for 3 hours. The reaction was terminated by addition of 15 μL Stop Buffer (180 mM HEPES (pH 7.5), 20 mM EDTA, Coating-3 reagent (PerkinElmer, 760050)). The plate was loaded on Caliper EZ Reader (EZ Reader II, PerkinElmer, HD-4HYSG2772), and the reaction mixtures including substrate and product were sipped into the microfluidic chip for separation and detection. The IC50 values of the test compound were determined by fitting the inhibition curves by 4 parameter sigmoidal dose-response model using the Xlfit5/GraphPad Prism 5 software.

T1 sequence (Q00534 whole entry): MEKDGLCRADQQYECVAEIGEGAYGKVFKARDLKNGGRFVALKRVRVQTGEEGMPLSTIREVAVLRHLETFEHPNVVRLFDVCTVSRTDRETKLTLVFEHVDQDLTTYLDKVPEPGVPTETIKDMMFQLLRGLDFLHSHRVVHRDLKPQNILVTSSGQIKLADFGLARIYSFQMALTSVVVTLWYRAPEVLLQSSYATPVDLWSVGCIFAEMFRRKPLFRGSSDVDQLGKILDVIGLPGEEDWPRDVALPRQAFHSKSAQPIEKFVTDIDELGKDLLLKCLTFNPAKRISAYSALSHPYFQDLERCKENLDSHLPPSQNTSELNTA
T1 sequence (P30281 whole entry partner): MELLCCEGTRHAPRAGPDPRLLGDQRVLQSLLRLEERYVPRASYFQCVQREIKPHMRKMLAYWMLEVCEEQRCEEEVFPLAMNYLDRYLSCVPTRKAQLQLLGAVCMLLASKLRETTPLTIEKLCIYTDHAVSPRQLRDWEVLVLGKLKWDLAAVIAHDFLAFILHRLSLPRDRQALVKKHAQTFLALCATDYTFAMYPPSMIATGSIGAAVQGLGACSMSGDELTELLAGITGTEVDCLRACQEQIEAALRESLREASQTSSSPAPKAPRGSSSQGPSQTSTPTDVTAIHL

With `CC(C)c1cnn2ccc(-c3ccnc(Nc4ccc(N5CCNCC5=O)nc4)n3)cc12` [compound 35], the IC50 (as a rule, the concentration at which inhibition is half-maximal) against CDK6/CyclinD3 is 0.01 to 0.1 µM.

In the case of `CC(C)n1cnc2c1CN(c1ccnc(Nc3ccc(N4CCCC(N)C4=O)cc3)n1)CC2` (stereo not shown) [compound 246], the 50% inhibitory concentration (IC50) at CDK4/CyclinD1 is below 0.01 µM; in the experiment with T47D breast cancer cells, 0.5 to 1 µM; on CDK2/CyclinE1, 0.1 to 1 µM.

For the compound `CC(C)n1cnc2c1CN(c1nc(Nc3ccc(N4CCCC(N)C4=O)cc3)ncc1F)CC2` (stereo not shown) [compound 247], the IC50 against CDK4/CyclinD1 was below 0.01 µM; in the experiment with T47D breast cancer cells, below 0.1 µM; on CDK2/CyclinE1, 0.01 to 0.1 µM.

For the compound `CNC1CCCN(c2ccc(Nc3ncc(F)c(N4CCc5ncn(C(C)C)c5C4)n3)cc2)C1=O` (stereo not shown) [compound 248], the IC50 is below 0.01 µM against CDK4/CyclinD1, below 0.1 µM in the experiment on T47D breast cancer cells and 0.01 to 0.1 µM at CDK2/CyclinE1.

In the case of `CC(C)n1cnc2c1CN(c1nc(Nc3ccc(N4CCCC(N(C)C)C4=O)cc3)ncc1F)CC2` (stereo not shown) [compound 249], the half-inhibitory concentration (IC50) against CDK4/CyclinD1 was below 0.01 µM; with T47D breast cancer cells, below 0.1 µM; at CDK2/CyclinE1, 0.01 to 0.1 µM.

Turning to `CC(C)N1CCN(c2ccc(Nc3ncc(F)c(N4CCc5ncn(C(C)C)c5C4)n3)nc2)CC1` [compound 250], the half-inhibitory concentration (IC50) is below 0.01 µM against CDK4/CyclinD1, below 0.1 µM in the experiment with T47D breast cancer cells and 0.1 to 1 µM at CDK2/CyclinE1.

With `CC(C)n1cnc2c1CN(c1nc(Nc3ccc(N4CCCC(N(C)C)C4)cc3)ncc1F)CC2` (stereo not shown) [compound 252], the IC50 is below 0.01 µM at CDK4/CyclinD1, below 0.1 µM in the experiment with T47D breast cancer cells and below 0.01 µM on CDK2/CyclinE1.

For the compound `CC(C)n1cnc2c1CN(c1nc(Nc3ccc(N4CCCNC4=O)cc3)ncc1F)CC2` [compound 253], the half-inhibitory concentration (IC50) on CDK4/CyclinD1 is below 0.01 µM; with T47D breast cancer cells, below 0.1 µM; on CDK2/CyclinE1, 0.01 to 0.1 µM.

With `CC(C)n1cnc2c1CN(c1nc(Nc3ccc(N4CCNCC4=O)cc3)ncc1F)CC2` [compound 257], the results for the half-maximal inhibitory concentration (IC50) on CDK4/CyclinD1, in the experiment on T47D breast cancer cells and at CDK2/CyclinE1 were below 0.01 µM, below 0.1 µM and below 0.01 µM, respectively.

`CC1(N)CCN(c2ccc(Nc3nccc(-c4cc(F)c5c(c4)C4(CCCC4)CO5)n3)nc2)C(=O)C1` (stereo not shown) [compound 260]: the IC50 on CDK4/CyclinD1 was below 0.01 µM; with T47D breast cancer cells it was below 0.1 µM; at CDK2/CyclinE1 it was 0.01 to 0.1 µM.

Consider `CC1(C)COc2c(F)cc(-c3ccnc(Nc4ccc(N5CCCC(N)C5=O)cc4)n3)cc21` (stereo not shown) [compound 263], for which the concentration for half-maximal inhibition (IC50) at CDK4/CyclinD1 was below 0.01 µM; in the experiment on T47D breast cancer cells, below 0.1 µM; at CDK2/CyclinE1, 0.01 to 0.1 µM.

For `CNC1CCCN(c2ccc(Nc3nccc(-c4cc(F)c5c(c4)C(C)(C)CO5)n3)cc2)C1=O` (stereo not shown) [compound 265], the IC50 is below 0.01 µM against CDK4/CyclinD1, below 0.1 µM with T47D breast cancer cells and 0.01 to 0.1 µM on CDK2/CyclinE1.

Take `CN(C)C1CCCN(c2ccc(Nc3nccc(-c4cc(F)c5c(c4)C(C)(C)CO5)n3)cc2)C1=O` (stereo not shown) [compound 266]: the IC50 is below 0.01 µM on CDK4/CyclinD1, below 0.1 µM in the experiment on T47D breast cancer cells and 0.1 to 1 µM on CDK2/CyclinE1.
